Type in all cases: biochemical
The target in one experiment is T1, human Yes1 enzyme (Homo sapiens, UniProt P07947).
T1 construct: made in house
The experiment can be described thus: Yes1 enzyme inhibitory activity (time-resolved fluorometry, biotinylated peptide phosphorylation). Conditions: read-out: YES_IC50. In outline: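 Inhibition was expressed against a compound-free control to give IC50, using TR-FRET read-out (Eu-cryptate anti-pTyr antibody, streptavidin-XL665).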

Another experiment deals with T2, human Src enzyme (Homo sapiens, UniProt P12931).
T2 construct: purchased Carna Biosciences, Inc. 08-173
T2 sequence (P12931 whole entry): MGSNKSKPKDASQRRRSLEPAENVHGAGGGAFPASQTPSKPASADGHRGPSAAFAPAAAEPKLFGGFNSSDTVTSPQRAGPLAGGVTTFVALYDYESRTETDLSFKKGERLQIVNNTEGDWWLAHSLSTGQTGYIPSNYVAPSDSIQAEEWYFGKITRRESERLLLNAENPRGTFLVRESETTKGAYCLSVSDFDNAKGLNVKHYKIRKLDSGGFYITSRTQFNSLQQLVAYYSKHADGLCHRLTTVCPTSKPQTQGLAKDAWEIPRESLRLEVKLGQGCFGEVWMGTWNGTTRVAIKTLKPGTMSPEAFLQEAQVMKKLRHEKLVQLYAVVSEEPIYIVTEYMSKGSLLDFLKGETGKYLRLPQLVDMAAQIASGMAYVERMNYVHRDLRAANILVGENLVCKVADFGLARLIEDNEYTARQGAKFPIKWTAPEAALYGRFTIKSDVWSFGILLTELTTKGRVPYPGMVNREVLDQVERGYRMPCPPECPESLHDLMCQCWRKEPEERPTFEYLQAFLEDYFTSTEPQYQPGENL
The experiment is described as follows: Src enzyme inhibitory activity (time-resolved fluorometry, biotinylated peptide phosphorylation). The settings on record: read-out: SRC_IC50. The essentials: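 Compounds were tested for blocking tyrosine phosphorylation of a biotinylated peptide substrate by recombinant human Src. Phosphorylated product was quantified by time-resolved fluorometry using europium cryptate and XL665 conjugates, and IC50 was calculated against the compound-free control.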

A further experiment deals with T3, human Lck enzyme (Homo sapiens, UniProt P06239).
T3 construct: purchased Carna Biosciences, Inc. 08-170
T3 sequence (P06239 whole entry): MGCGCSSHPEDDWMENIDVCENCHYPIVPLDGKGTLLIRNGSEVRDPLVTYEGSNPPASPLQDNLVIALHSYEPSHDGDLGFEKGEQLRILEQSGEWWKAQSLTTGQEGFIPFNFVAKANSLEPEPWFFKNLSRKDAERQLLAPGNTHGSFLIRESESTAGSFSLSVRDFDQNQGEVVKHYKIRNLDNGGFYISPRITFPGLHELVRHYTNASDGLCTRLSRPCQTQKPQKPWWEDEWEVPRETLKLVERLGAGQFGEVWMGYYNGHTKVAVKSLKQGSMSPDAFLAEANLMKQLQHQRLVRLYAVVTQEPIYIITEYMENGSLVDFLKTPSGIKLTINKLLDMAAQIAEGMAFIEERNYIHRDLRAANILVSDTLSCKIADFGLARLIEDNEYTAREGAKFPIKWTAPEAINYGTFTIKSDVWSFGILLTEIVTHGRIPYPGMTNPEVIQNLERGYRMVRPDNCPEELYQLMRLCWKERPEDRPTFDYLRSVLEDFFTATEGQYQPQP
The experiment can be described thus: Lck enzyme inhibitory activity (time-resolved fluorometry, biotinylated peptide phosphorylation). The settings on record: read-out: LCK_IC50. In outline:
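Readout pairs a europium cryptate-labelled anti-phosphotyrosine antibody with XL665-streptavidin, measured by time-resolved fluorescence. IC50 derived from percent inhibition against untreated controls.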

Where [1] appears, read: biotinylated peptide phosphorylation.

Molecules are shown by their SMILES. Like-named read-outs stand apart in the source and are kept apart here.

T1 sequence (P07947 whole entry): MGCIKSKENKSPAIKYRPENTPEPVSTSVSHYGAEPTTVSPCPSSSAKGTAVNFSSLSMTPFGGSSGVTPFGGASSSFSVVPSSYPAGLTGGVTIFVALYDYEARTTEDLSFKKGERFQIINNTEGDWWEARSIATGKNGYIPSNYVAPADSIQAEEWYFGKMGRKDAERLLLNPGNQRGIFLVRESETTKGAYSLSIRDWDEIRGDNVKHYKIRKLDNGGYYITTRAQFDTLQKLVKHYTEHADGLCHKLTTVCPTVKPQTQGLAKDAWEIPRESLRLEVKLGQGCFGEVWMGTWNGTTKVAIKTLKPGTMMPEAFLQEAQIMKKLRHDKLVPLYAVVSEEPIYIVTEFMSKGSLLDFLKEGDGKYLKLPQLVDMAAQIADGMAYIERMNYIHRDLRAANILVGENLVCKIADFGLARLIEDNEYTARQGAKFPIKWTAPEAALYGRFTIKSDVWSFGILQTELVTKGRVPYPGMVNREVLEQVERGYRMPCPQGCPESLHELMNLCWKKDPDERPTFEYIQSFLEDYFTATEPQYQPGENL

With `Cc1cc(Oc2c(F)cccc2F)ncc1-n1ncc(C(=O)c2cc3cc(OC4CCN(C(C)C)CC4)c(-c4cnn(C)c4)cc3[nH]2)c1N` [Example 5-1-249, [5-amino-1-[6-(2,6-difluorophenoxy)-4-methylpyridin-3-yl]pyrazol-4-yl]-[6-(1-methylpyrazol-4-yl)-5-(1-propan-2-ylpiperidin-4-yl)oxy-1H-indol-2-yl]methanone], the IC50 amounted to 0.77 nM on human Yes1 enzyme, 7.4 nM on human Src enzyme and 3.7 nM at human Lck enzyme.

Take `Cc1cc(Oc2cccc(F)c2F)cc(F)c1-n1ncc(C(=O)c2cc3cc(NS(C)(=O)=O)c(F)cc3[nH]2)c1N` [Example 4-2-100, N-[2-[5-amino-1-[4-(2,3-difluorophenoxy)-2-fluoro-6-methylphenyl]pyrazole-4-carbonyl]-6-fluoro-1H-indol-5-yl]methanesulfonamide]: the figures for the IC50 at human Yes1 enzyme (setting [1]), at human Src enzyme (setting [1]) and at human Lck enzyme (setting [1]) were 0.73 nM, 27 nM and 2.1 nM, respectively.

Turning to `Cc1cc(Oc2ccccc2F)ncc1-n1ncc(C(=O)c2cc3cc(NS(C)(=O)=O)c(Cl)cc3[nH]2)c1N` [Example 4-2-096, N-[2-[5-amino-1-[6-(2-fluorophenoxy)-4-methylpyridin-3-yl]pyrazole-4-carbonyl]-6-chloro-1H-indol-5-yl]methanesulfonamide], the IC50 is 0.38 nM on human Yes1 enzyme (setting [1]), 9.5 nM at human Src enzyme (setting [1]) and 2.6 nM at human Lck enzyme (setting [1]).

Take `Cc1cc(Oc2ccccc2)cc(F)c1-n1ncc(C(=O)c2cc3cc(Cl)c(NS(C)(=O)=O)cc3[nH]2)c1N` [Example 4-2-084, N-[2-[5-amino-1-(2-fluoro-6-methyl-4-phenoxyphenyl)pyrazole-4-carbonyl]-5-chloro-1H-indol-6-yl]methanesulfonamide]: the IC50 turned out to be 6.3 nM at human Yes1 enzyme (setting [1]), 160 nM at human Src enzyme (setting [1]) and 73 nM on human Lck enzyme (setting [1]).

`Cc1cc(Oc2c(F)cccc2F)ncc1-n1ncc(C(=O)c2cc3cc(OC(F)F)c(C4CCN(S(=O)(=O)C5CC5)CC4)cc3[nH]2)c1N` [Example 4-17-013, [5-amino-1-[6-(2,6-difluorophenoxy)-4-methylpyridin-3-yl]pyrazol-4-yl]-[6-(1-cyclopropylsulfonylpiperidin-4-yl)-5-(difluoromethoxy)-1H-indol-2-yl]methanone]: the IC50 amounted to 17 nM at human Yes1 enzyme (setting [1]), 46 nM on human Src enzyme (setting [1]) and 37 nM on human Lck enzyme (setting [1]).

Consider `Cc1cc(-n2ncc(C(=O)c3cc4cc(OCC(F)F)c(N5CCOC5=O)cc4[nH]3)c2N)ccc1Oc1ccccc1F` [Example 5-1-168, 3-[2-[5-amino-1-[4-(2-fluorophenoxy)-3-methylphenyl]pyrazole-4-carbonyl]-5-(2,2-difluoroethoxy)-1H-indol-6-yl]-1,3-oxazolidin-2-one], for which the IC50 turned out to be 1.1 nM at human Yes1 enzyme, 210 nM on human Src enzyme and 45 nM on human Lck enzyme.

For `Cc1cc2cc(C(=O)c3cnn(-c4c(C)cc(Oc5ccccc5F)cc4F)c3N)[nH]c2cc1C1CCN(S(C)(=O)=O)CC1` [Example 5-1-111, [5-amino-1-[2-fluoro-4-(2-fluorophenoxy)-6-methylphenyl]pyrazol-4-yl]-[5-methyl-6-(1-methylsulfonylpiperidin-4-yl)-1H-indol-2-yl] methanone], the IC50 is 14 nM at human Yes1 enzyme, 46 nM on human Src enzyme and 14 nM on human Lck enzyme.

Turning to `Cc1cc(Oc2ccccc2F)cc(F)c1-n1ncc(C(=O)c2cc3cc(F)c(NS(C)(=O)=O)cc3[nH]2)c1N` [Example 4-7-003, N-[2-[5-amino-1-[2-fluoro-4-(2-fluorophenoxy)-6-methylphenyl]pyrazole-4-carbonyl]-5-fluoro-1H-indol-6-yl]methanesulfonamide], the values for the IC50 at human Yes1 enzyme (setting [1]), on human Src enzyme (setting [1]) and at human Lck enzyme (setting [1]) were 1 nM, 19 nM and 7.1 nM, respectively.

Take `Cc1cc(Oc2ccccc2F)cc(C)c1-n1ncc(C(=O)c2cc3cc(F)c(NS(=O)(=O)C4CC4)cc3[nH]2)c1N` [Example 4-2-042, N-[2-[5-amino-1-[4-(2-fluorophenoxy)-2,6-dimethylphenyl]pyrazole-4-carbonyl]-5-fluoro-1H-indol-6-yl]cyclopropanesulfonamide]: the values for the IC50 on human Yes1 enzyme (setting [1]), at human Src enzyme (setting [1]) and on human Lck enzyme (setting [1]) were 32 nM, 840 nM and 370 nM, respectively.

As to `Cc1cc2cc(C(=O)c3cnn(-c4c(C)cc(Oc5ccccc5F)cc4F)c3N)[nH]c2cc1NS(=O)(=O)N1CCOCC1` [Example 4-2-107, N-[2-[5-amino-1-[2-fluoro-4-(2-fluorophenoxy)-6-methylphenyl]pyrazole-4-carbonyl]-5-methyl-1H-indol-6-yl]morpholine-4-sulfonamide], the results for the IC50 on human Yes1 enzyme (setting [1]), at human Src enzyme (setting [1]) and on human Lck enzyme (setting [1]) were 2.4 nM, 250 nM and 89 nM, respectively.

Regarding `Cc1cc(Oc2ccccc2F)cc(F)c1-n1ncc(C(=O)c2cc3cc(OC(F)F)c(C4CCN(S(C)(=O)=O)CC4)cc3[nH]2)c1N` [Example 4-17-006, [5-amino-1-[2-fluoro-4-(2-fluorophenoxy)-6-methylphenyl]pyrazol-4-yl]-[5-(difluoromethoxy)-6-(1-methylsulfonylpiperidin-4-yl)-1H-indol-2-yl]methanone], the IC50 at human Yes1 enzyme (setting [1]) turned out to be 3.4 nM; at human Src enzyme (setting [1]), 25 nM; on human Lck enzyme (setting [1]), 13 nM.

Take `Cc1cc(Oc2ccccc2F)ccc1-n1ncc(C(=O)c2cc3cc(F)c(NS(=O)(=O)NC4(C)COC4)cc3[nH]2)c1N` [Example 4-5-008, [5-amino-1-[4-(2-fluorophenoxy)-2-methylphenyl]pyrazol-4-yl]-[5-fluoro-6-[(3-methyloxetan-3-yl)sulfamoylamino]-1H-indol-2-yl]methanone]: the IC50 on human Yes1 enzyme (setting [1]) amounted to 0.55 nM; at human Src enzyme (setting [1]), 31 nM; at human Lck enzyme (setting [1]) it was 8.2 nM.

As to `Cc1cc(Oc2ccccc2F)ccc1-n1ncc(C(=O)c2cc3cc(F)c(NS(N)(=O)=O)cc3[nH]2)c1N` [Example 4-20-001, 2-[5-amino-1-[4-(2-fluorophenoxy)-2-methylphenyl]pyrazole-4-carbonyl]-5-fluoro-6-(sulfamoylamino)-1H-indole], the IC50 at human Yes1 enzyme (setting [1]) turned out to be 0.64 nM; on human Src enzyme (setting [1]), 31 nM; at human Lck enzyme (setting [1]) it was 3.5 nM.

`Cc1cc(Oc2ccccc2F)nc(C)c1-n1ncc(C(=O)c2cc3cc(F)c(NS(C)(=O)=O)cc3[nH]2)c1N` [Example 5-1-060, N-[2-[5-amino-1-[6-(2-fluorophenoxy)-2,4-dimethylpyridin-3-yl]pyrazole-4-carbonyl]-5-fluoro-1H-indol-6-yl]methanesulfonamide]: the IC50 was 82 nM at human Yes1 enzyme, 390 nM on human Src enzyme and 42 nM at human Lck enzyme.

Regarding `Cc1cc(-n2ncc(C(=O)c3cc4cc(F)c(C5CCN(C(C)C)CC5)cc4[nH]3)c2N)ccc1Oc1ccccc1F` [Example 4-2-014, [5-amino-1-[4-(2-fluorophenoxy)-3-methylphenyl]pyrazol-4-yl]-[5-fluoro-6-(1-propan-2-ylpiperidin-4-yl)-1H-indol-2-yl]methanone], the IC50 at human Yes1 enzyme (setting [1]) worked out at 18 nM; on human Src enzyme (setting [1]), 510 nM; on human Lck enzyme (setting [1]), 62 nM.

Consider `Cc1cc(Oc2cccc(F)c2)ncc1-n1ncc(C(=O)c2cc3cc(F)c(NS(C)(=O)=O)cc3[nH]2)c1N` [Example 4-2-038, N-[2-[5-amino-1-[6-(3-fluorophenoxy)-4-methylpyridin-3-yl]pyrazole-4-carbonyl]-5-fluoro-1H-indol-6-yl]methanesulfonamide], for which the values for the IC50 at human Yes1 enzyme (setting [1]), on human Src enzyme (setting [1]) and at human Lck enzyme (setting [1]) were 1.9 nM, 130 nM and 40 nM, respectively.

With `Cc1cc(Oc2c(F)cccc2F)ncc1-n1ncc(C(=O)c2cc3cc(OCC(F)F)c(N4CCCC4=O)cc3[nH]2)c1N` [Example 4-21-001, 1-{2-{5-amino-1-[6-(2,6-difluorophenoxy)-4-methylpyridin-3-yl]pyrazole-4-carbonyl}-5-(2,2-difluoroethoxy)-1H-indol-6-yl}pyrrolidin-2-one], the IC50 amounted to 3.7 nM at human Yes1 enzyme (setting [1]), 13 nM on human Src enzyme (setting [1]) and 6.2 nM at human Lck enzyme (setting [1]).

In the case of `Cc1cc(Oc2c(F)cccc2F)ncc1-n1ncc(C(=O)c2cc3cc(OCC(F)F)c(NS(=O)(=O)C4CCOCC4)cc3[nH]2)c1N` [Example 5-1-319, N-[2-[5-amino-1-[6-(2,6-difluorophenoxy)-4-methylpyridin-3-yl]pyrazole-4-carbonyl]-5-(2,2-difluoroethoxy)-1H-indol-6-yl]oxane-4-sulfonamide], the IC50 at human Yes1 enzyme turned out to be 2.8 nM; on human Src enzyme, 88 nM; on human Lck enzyme it was 18 nM.

As for `Cc1cc(Oc2ccccc2F)ccc1-n1ncc(C(=O)c2cc3cc(F)c(N4C(=O)C(C)(C)NC4=S)cc3[nH]2)c1N` [Example 5-1-126, 3-[2-[5-amino-1-[4-(2-fluorophenoxy)-2-methylphenyl]pyrazole-4-carbonyl]-5-fluoro-1H-indol-6-yl]-5,5-dimethyl-2-sulfanylideneimidazolidin-4-one], the IC50 on human Yes1 enzyme was 0.87 nM; on human Src enzyme, 64 nM; at human Lck enzyme, 15 nM.

As to `Cc1cc(Oc2ccccc2Cl)ccc1-n1ncc(C(=O)c2cc3cc(F)c(C4CCN(C(C)C)CC4)cc3[nH]2)c1N` [Example 4-2-012, [5-amino-1-[4-(2-chlorophenoxy)-2-methylphenyl]pyrazol-4-yl]-[5-fluoro-6-(1-propan-2-ylpiperidin-4-yl)-1H-indol-2-yl]methanone], the figures for the IC50 at human Yes1 enzyme (setting [1]), at human Src enzyme (setting [1]) and on human Lck enzyme (setting [1]) were 2.2 nM, 9.4 nM and 4.9 nM, respectively.

For `CS(=O)(=O)Nc1cc2[nH]c(C(=O)c3cnn(-c4c(F)cc(Oc5ccccc5F)cc4F)c3N)cc2cc1F` [Example 5-1-022, N-[2-[5-amino-1-[2,6-difluoro-4-(2-fluorophenoxy)phenyl]pyrazole-4-carbonyl]-5-fluoro-1H-indol-6-yl]methanesulfonamide], the IC50 on human Yes1 enzyme is 2 nM; at human Src enzyme, 62 nM; at human Lck enzyme, 10 nM.

The values above are taken from patent US10479780B2, “Aminopyrazole derivatives” (Chugai Seiyaku Kabushiki Kaisha, priority 2015, dated 2019).
